Results: US20240424043A1, “COMPOSITION FOR PREVENTING OR TREATING MUSCLE DISEASE COMPRISING ARALIA ELATA EXTRACT” (KOREA INSTITUTE OF SCIENCE AND TECHNOLOGY, priority 2023, published 2024)

How the values were obtained:
[1] = tested on: Mstn, Myd1, Myog, and Myf5 gene expression in C2C12 mouse-derived myotubes; assay: RT-qPCR of muscle cell differentiation-related gene expression; format: cell-based; settings: dexamethasone 10 μM, beta-actin control, FIG. 7; for Mstn gene expression (marker of muscle growth inhibition): increased by dexamethasone; for Myd1 gene expression (marker of myogenic differentiation) / Myf5 gene expression (marker of myogenic differentiation) / Myog gene expression (marker of myogenic differentiation): reduced by dexamethasone
Protocol: (§1) C2C12 mouse-derived myotubes treated with dexamethasone 10 μM were washed twice with PBS, and total RNA was extracted according to the user-recommended protocol of an RNA extraction kit (GeneAll RNA isolation kit, Seoul, South Korea). cDNA was synthesized from the extracted RNA and subjected to real time-quantitative polymerase chain reaction (RT-qPCR). POR analysis was performed according to the user-recommended cycling conditions of the analyzer (Applied Biosystems 7900 HT thermal cycler, Applied Biosystems). To determine the expression level of each mRNA, fold change values relative to the control were calculated using beta-actin as an endogenous control, and relative expression levels were compared.

C2C12 myotubes [2] = assay: Oxidative stress (GSH content) and mitochondrial function in dexamethasone-treated myotubes; format: cell-based, mouse; settings: 20 μM compound, 100 μM dexamethasone for 24 hours, FIG. 8; for glutathione (GSH) content: decreased by dexamethasone
Protocol: (§2) Cell culture and differentiation of myoblasts: C2C12 mouse (CRL1772; American type cell collection, USA) derived myoblasts were cultured in Dulbecco's Modified Eagle's Medium (DMEM) medium supplemented with 10 (v/v) % FBS, and after reaching 90% confluence, they were transferred to DMEM medium containing 2 (v/v) % horse serum and cultured for 7 days to differentiate into myotubes.
As in Example 4, C2C12 myoblasts were differentiated into myotubes, and then treated with 100 μM of dexamethasone for 24 hours to induce oxidative stress or mitochondrial dysfunction, and then treated with 20 μM of three compounds (catechol, 4-ethyl catechol, and methyl dihydroxycaffeate) isolated from the extract of Aralia Elata to determine their efficacy in ameliorating oxidative stress and mitochondrial dysfunction. […] Furthermore, the mitochondrial dysfunction induced by dexamethasone treatment was ameliorated by treatment with the present compound derived from the extract of Aralia Elata (FIG. 8).

[3] = tested on: Ppargc1a, UCp3, Tomm20, and Tfam gene expression in C2C12 mouse-derived endodermal cells; assay: RT-qPCR of exercise performance-related gene expression; format: cell-based; settings: dexamethasone 10 μM, beta-actin control, reduced by dexamethasone, FIG. 9
Protocol: as §1, with “mouse-derived endodermal cells” for “mouse-derived myotubes”, “extracted RNA,” for “extracted RNA”, “(RT-qPCR). PCR” for “(RT-qPCR). POR”

[4] = tested on: Ppargc1a, UCp3, Tomm20, and Tfam gene expression in C2C12 mouse-derived cells; assay: as above; format: cell-based; settings: dexamethasone 10 μM, beta-actin control, reduced by dexamethasone, FIG. 9
Protocol: as §1, with “mouse-derived endodermal cells” for “mouse-derived myotubes”, “extracted RNA,” for “extracted RNA”, “(RT-qPCR). PCR” for “(RT-qPCR). POR”

C2C12 myotubes [5] = assay: Myotube cell survival rate after dexamethasone-induced myoatrophy; format: cell-based, mouse; settings: 20 μM compound; 100 μM dexamethasone for 24 hours; FIG. 5
Protocol: as §2
C2C12 myoblasts were differentiated into myotubes, and then treated with 100 μM of dexamethasone for 24 hours to induce myoatrophy, and 20 μM of 13 compounds isolated from the extract (see Table 1) to determine the effect of alleviating myoatrophy.

[6] = tested on: mice in which sarcopenia was induced by administration of Dexamethasone; assay: Grip strength and body weight in dexamethasone-induced sarcopenia mouse model; format: in vivo, C57BL/6J mice; settings: compared to the group treated only with Dexamethasone (25 mg/kg i.p., 2 weeks); oral once daily 4 weeks; AE 10, 50 or 100 mg/kg, S-23 25 mg/kg; FIG. 2
Protocol: The present inventors created a sarcopenia mouse model to confirm the effectiveness of Aralia Elata extract prepared in the above-described preparation example to treat or improve sarcopenia, and measured grip strength using the control mouse and the sarcopenia mouse model.
The mice used to confirm the efficacy of Aralia Elata extract were prepared through the following process.
The test substance was prepared in the form of a liquid suspension using 0.5% CMC and administered for 4 weeks. To correct for the placebo effect of 0.5% CMC and the weight loss effect due to administration stress, 0.5% CMC was orally administered daily to the vehicle control group. Two weeks after administration of the test substance, the experimental group was administered intraperitoneal injection of Dexamethasone for two weeks to induce sarcopenia, and the normal control group was administered saline solution by intraperitoneal injection. All mice were provided with the same AlN76 diet (Research Diets), and the test substances were administered for an additional 2 weeks for a total of 4 weeks. The dark: light cycle was maintained at 12-hour:12-hour intervals, and water was allowed to be consumed freely. […] (Dex: Dexamethasone sarcopenia-inducing substance (25 mg/kg), AE: Aralia Elata extract (10, 50, or 100 mg/kg)).

Compound	Mstn gene expression (marker of muscle growth inhibition) [1]	Myd1 gene expression (marker of myogenic differentiation) [1]	Myf5 gene expression (marker of myogenic differentiation) [1]	Myog gene expression (marker of myogenic differentiation) [1]	mitochondrial dysfunction induced by dexamethasone treatment (C2C12 myotubes [2])	glutathione (GSH) content (C2C12 myotubes [2])	Tfam gene expression [3]	Tomm20 gene expression [3]	UCp3 gene expression [3]	Ppargc1a gene expression [4]	viability of myotubes reduced by dexamethasone treatment (C2C12 myotubes [5])	body weight [6]	grip strength [6]
CCc1ccc(O)c(O)c1 [4-ethyl catechol]	decreased	increased	increased	increased	ameliorated	increased again	increased	increased	increased	increased			
Oc1ccccc1O [Compound 3, Catechol]	decreased	increased	increased	increased	ameliorated	increased again	increased	increased	increased	increased	significantly superior effect		
CCc1ccc(O)c(O)c1 [Compound 4, 4-ethyl catechol]											significantly superior effect		
C[C@](O)(COc1ccc(Cl)c(F)c1)C(=O)Nc1ccc(C#N)c(C(F)(F)F)c1 [Compound S-23]												increased	increased
